# According to ChEMBL document CHEMBL4819014, “Design, synthesis and biological evaluation of imidazole and triazole-based carbamates as novel aromatase inhibitors” (Eur J Med Chem, 2021):
# pIC50: −log10 of the molar value. Activity calls are given as the source filed them. No cut-off for these calls is given here.
# Legend:
# CYP19A (aromatase) = target: T1, CYP19A (aromatase) (Homo sapiens, UniProt P11511); assay: Inhibition of human CYP19A at 1 uM measured every 1 min for 60 mins by flourimetric assay
# T1 sequence (P11511 whole entry): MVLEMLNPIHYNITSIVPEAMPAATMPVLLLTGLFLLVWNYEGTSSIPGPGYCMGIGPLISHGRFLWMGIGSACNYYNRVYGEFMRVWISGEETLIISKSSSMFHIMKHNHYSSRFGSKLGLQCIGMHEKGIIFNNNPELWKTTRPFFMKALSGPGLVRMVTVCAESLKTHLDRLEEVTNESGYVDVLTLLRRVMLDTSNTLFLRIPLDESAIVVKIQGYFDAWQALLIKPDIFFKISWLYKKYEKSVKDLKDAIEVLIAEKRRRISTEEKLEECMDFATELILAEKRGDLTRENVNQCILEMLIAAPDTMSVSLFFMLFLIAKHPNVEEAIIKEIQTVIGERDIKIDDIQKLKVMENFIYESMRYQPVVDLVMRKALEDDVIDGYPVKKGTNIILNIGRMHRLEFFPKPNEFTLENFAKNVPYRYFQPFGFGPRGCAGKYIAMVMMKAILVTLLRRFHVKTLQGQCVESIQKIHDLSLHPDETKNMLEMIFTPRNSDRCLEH
# MCF7 [1] = assay: Cytotoxicity against human MCF7 cells assessed as metabolic activity at 10 to 250 uM measured after 24 hrs by MTT assay; format: functional; conditions: dose 10-250 µM
# MCF7 [2] = assay: Cytotoxicity against human MCF7 cells assessed as lactate dehydrogenase activity measured after 24 hrs by microplate reader method relative to control; format: functional
# Aromatase = target: T2, Aromatase (Homo sapiens, UniProt P11511); assay: Inhibition of human CYP19A measured every 1 min for 60 mins by flourimetric assay
# T2 sequence (P11511 whole entry): T1 sequence (P11511 whole entry)
# MCF7 [3] = assay: Cytotoxicity against human MCF7 cells assessed as lactate dehydrogenase activity at 250 uM measured after 24 hrs by microplate reader method relative to control; format: functional
# MCF7 [4] = assay: Cytotoxicity against human MCF7 cells assessed as metabolic activity at 50 uM measured after 72 hrs by MTT assay; format: functional
# MCF7 [5] = assay: Induction of cell cycle arrest in human MCF7 cells assessed as decrease in accumulation of cells in G1 phase at 100 to 250 uM measured after 24 hrs by PI staining based flow cytometry method; format: functional; conditions: dose 100-250 µM
# MCF7 [6] = assay: Induction of cell cycle arrest in human MCF7 cells assessed as accumulation of cells in S phase measured after 24 hrs by PI staining based flow cytometry method; format: functional; conditions: dose 10-250 µM
# MCF7 [7] = assay: Cytotoxicity against human MCF7 cells assessed as metabolic activity measured after 48 hrs by MTT assay; format: functional, cell-based; conditions: dose 10-250 µM
# MCF7 [8] = assay: Induction of cell cycle arrest in human MCF7 cells assessed as accumulation of cells in G2/M phase at 100 to 250 uM measured after 24 hrs by PI staining based flow cytometry method; format: functional; conditions: dose 100-250 µM
# MCF7 [9] = assay: Cytotoxicity against human MCF7 cells assessed as metabolic activity at 100 uM measured after 48 hrs by MTT assay; format: functional
# MCF7 [10] = assay: Cytotoxicity against human MCF7 cells assessed as metabolic activity at 10 uM measured after 24 hrs by MTT assay; format: functional
# MCF7 [11] = assay: Cytotoxicity against human MCF7 cells assessed as metabolic activity at 25 uM measured after 72 hrs by MTT assay; format: functional
# MCF7 [12] = assay: Cytotoxicity against human MCF7 cells assessed as metabolic activity at 10 uM measured after 72 hrs by MTT assay; format: functional
# MCF7 [13] = assay: Cytotoxicity against human MCF7 cells assessed as metabolic activity at 250 uM measured after 48 hrs by MTT assay; format: functional
smiles,measurement,setting,value
COc1ccc(NC(=O)OC(COc2ccccc2)Cn2ccnc2)cc1 (stereo not drawn),"inhibition at 1 h, 1 µM",CYP19A (aromatase),61%
O=C(Nc1ccc(Cl)cc1)OC(COc1ccccc1)Cn1ccnc1 (stereo not drawn),Activity,MCF7 [1],50%
same,fold change (FC),MCF7 [2],4
same,pIC50,Aromatase,6.07
same,fold change (FC),MCF7 [3],4.8
same,"inhibition at 1 h, 1 µM",CYP19A (aromatase),72%
same,Activity,MCF7 [4],25.18%
same,Activity,MCF7 [5],Active
same,Activity,MCF7 [6],Dose-Dependent Effect
same,Activity,MCF7 [7],Dose-Dependent Effect
same,Activity,MCF7 [8],Active
O=C(Nc1ccc(Cl)cc1)OC(Cn1ccnc1)c1ccccc1 (stereo not drawn),"inhibition at 1 h, 1 µM",CYP19A (aromatase),62%
COc1ccc(OCC(Cn2cncn2)OC(=O)Nc2ccc(Cl)cc2)cc1 (stereo not drawn),"inhibition at 1 h, 1 µM",CYP19A (aromatase),49%
O=C(NCc1ccccc1)OC(Cn1ccnc1)c1ccccc1 (stereo not drawn),fold change (FC),MCF7 [2],4
same,pIC50,Aromatase,6.09
same,fold change (FC),MCF7 [3],4.8
same,Activity,MCF7 [9],10.39%
same,"inhibition at 1 h, 1 µM",CYP19A (aromatase),81%
same,Activity,MCF7 [10],43.67%
same,Activity,MCF7 [11],55.06%
same,Activity,MCF7 [12],50.16%
same,Activity,MCF7 [4],46.7%
same,Activity,MCF7 [6],Dose-Dependent Effect
same,Activity,MCF7 [13],30.75%
O=C(Nc1ccccc1)OC(Cn1ccnc1)c1ccccc1 (stereo not drawn),"inhibition at 1 h, 1 µM",CYP19A (aromatase),61%
O=C(Nc1ccccc1)OC(COc1ccccc1)Cn1ccnc1 (stereo not drawn),"inhibition at 1 h, 1 µM",CYP19A (aromatase),27%
COc1ccc(NC(=O)OC(COc2ccccc2)Cn2ccnc2)c(OC)c1 (stereo not drawn),"inhibition at 1 h, 1 µM",CYP19A (aromatase),25%
O=C(Nc1ccccc1)OC(COc1ccc(Cl)cc1)Cn1cncn1 (stereo not drawn),"inhibition at 1 h, 1 µM",CYP19A (aromatase),46%
